Results on 20 compounds are retold here after patent publication US20250179061A1 (SIRONAX LTD., priority 2022, published 2025).

This assay concerns HT-29 cells. Description: HT-29 necroptosis cell viability assay (TNF-α/SMAC mimetic/zVAD-FMK, CellTiter-Glo). The class given is cell-based. The following applies: Homo sapiens. As to the method: Compounds 1-702 of the disclosure were tested for biological activity, following the experimental procedures described below.
• Cell line: HT-29 (ATCC® HTB-38™) • Culture medium: McCOY's 5A, Gibco, Cat No. 16600-082 • FBS, Gibco, Cat No. 10099-141 C • Trypsin: Gibco, Cat No. 25200-056 • DMSO: Sigma, Cat No. 67-68-5, 1L • Assay plate: Corning #3903 • Compound dilution plate: Corning #3357 • Inducers: TNFα, GenScript, Cat No. Z01001-50, • SmacM, Cat. No., HY-15989, MedChemExpress (MCE) • Z_VAD FMK, TargetMol, T6013 • Cell Titer-Glo® Luminescent Cell Viability Assay Kit: Promega, Cat No. G7573 • EnVision: PerkinElmer, 2105-0010
• 1. HT-29 cells were checked every day to make sure that they were healthy and growing as expected. They were subjected to sub-culturing when they were approximately 80% confluent. • 2. The culture medium, McCOY's 5A medium (Gibco, Cat No. 16600-082) with 10% fetal bovine serum or FBS (Gibco, Cat No. 10099-141C), was pre-warmed in a 37° C. water bath for at least 30 min. • 3. When the cells had reached a desired level of confluency of 80% in a T75 flask, the medium was aspirated, and the cells were washed with warm phosphate buffered saline or PBS two times. • 4. 2-3 ml fresh warm trypsin (Gibco, Cat No. 25200-056) solution was added to the washed cells. The flask with the cells was transferred to a 37° C. incubator. • 5. After 5 minutes, the side of the flask was tapped, and the flask was examined under a microscope for detachment of the cells to the flask. If necessary, the cells were kept in the incubator for an additional 5-10 minutes, with occasional tapping, until lifting was complete. • 6. The trypsin reaction was neutralized by transferring 6-9 ml cell culture medium to sterile 15 ml conical tubes, and by centrifuging the cell culture at 300×g for 7 minutes to pellet the cells (supernatant decanted). • 7. The cells were resuspended in fresh cell culture medium and the cell counting was performed using a hemocytometer. • 8. 100 μl of the resuspended cell culture medium containing ˜5,000 cells were transferred into each well of the sterile 96-well cell culture plate (Corning 3903) and cultured overnight at 37° C. with 5% CO2.
• 1. All test compounds were dissolved in DMSO (Dimethyl sulfoxide) to create a 20 mM stock. • 2. 3 μl of 20 mM stock of each compound was mixed with 27 μl DMSO, and the compound solution was further diluted at a titration ratio of 1:3 (20 μl compound solution+40 μl DMSO) till the 10 points end. • 3. All culture medium was removed from assay plates filled with HT-29 cell cultures. The cells were then washed with 1 PBS, and resuspsended in fresh, FBS-free McCOY's 5A medium containing a cocktail of TNF-α (10 ng/ml), a SMAC mimetic compound (6 μM) and Z-VAD-fluoromethylketone or zVAD-FMK (10 μM) to stimulate the HT-29 cells to increase RIP1 kinase levels and necroptosis. • 4. 0.5 μL of the diluted compound solution was added to the corresponding 96-well assay plates. • 5. The assay plates were incubated for 20 hours at 37° C. with 5% CO2.
• 1. The CellTiter-Glo® Luminescent Cell Viability Assay was employed to detect the ATP levels of viable HT-29 cells. • 2. The CellTiter-Glo® buffer and the lyophilized substrate were equilibrated to room temperature prior to use. • 3. The CellTiter-Glo® substrate was resuspended with CellTiter-Glo® buffer, then mixed by gently vortexing to obtain a homogeneous solution. • 4. 20 μl of the enzyme/substrate mixture was transferred by multi-channel pipetting into 96-well assay plates. • 5. The assay plates were placed on an orbital shaker and the contents were shaken for 3 minutes to induce cell lysis. • 6. The assay plates were incubated at room temperature for 10 minutes to stabilize the luminescent signal. • 7. The luminescence signals were read and recorded with EnVision. • 8. The geometric mean IC50 values were calculated from 10 points response dose with duplicates. […]
A general note: In ATP-based viability assays light output follows the ATP content of the culture.

The mark [1] stands for this setting: HT-29, HT-29 necroptosis cell viability, IC50 class symbols, read-out: Activity.
Where [2] appears, read: HT-29, HT-29 necroptosis cell viability assay, class symbols for IC50, read-out: Activity.
Setting [3] is: HT-29 cells stimulated with TNF-α (10 ng/ml), SMAC mimetic (6 μM) and zVAD-FMK (10 μM), 20 hours, CellTiter-Glo ATP luminescence, geometric mean IC50 from 10 points, read-out: Activity.
Setting [4] is: HT-29, HT-29 cells, necroptosis induced by TNF-α/SMAC mimetic/zVAD-FMK, CellTiter-Glo, read-out: Activity (IC50 class).

The structures appear in SMILES notation. Where two headings read alike, the source gives them in different places. Where only a bound is given, the exact number is not on record here.

For `CN(CC1CCOCC1)c1cc(Oc2ccc(-n3ncn(Cc4c(F)cccc4F)c3=O)cc2)ccn1` [Example 407, 4-[(2,6-difluorophenyl)methyl]-2-[4-({2-[methyl(oxan-4-ylmethyl)amino]pyridin-4-yl}oxy)phenyl]-1,2,4-triazol-3-one], the IC50 under setting [1] lay in the range of 100 to 1000 nM.

For the compound `Cc1nc(C2CCOCC2)sc1Oc1ccc(-n2ncn(Cc3c(F)cccc3F)c2=O)cc1` [Example 551, 4-(2,6-difluorobenzyl)-2-(4-((4-methyl-2-(tetrahydro-2H-pyran-4-yl)thiazol-5-yl)oxy)phenyl)-2,4-dihydro-3H-1,2,4-triazol-3-one], the IC50 under setting [2] is under 100 nM.

`Cc1nc(C(=O)NCC2COC2)sc1Oc1ccc(-n2ncn(Cc3ccccc3F)c2=O)cc1F` [Example 604, 5-(2-fluoro-4-(4-(2-fluorobenzyl)-5-oxo-4,5-dihydro-1H-1,2,4-triazol-1-yl)phenoxy)-4-methyl-N-(oxetan-3-ylmethyl)thiazole-2-carboxamide]: the IC50 under setting [2] was under 100 nM.

In the case of `Cc1cc(C#N)c(C)n1Cc1ccc(-n2ncn(Cc3c(F)cccc3F)c2=O)cc1F` [Example 124, 1-(4-(4-(2,6-difluorobenzyl)-5-oxo-4,5-dihydro-1H-1,2,4-triazol-1-yl)-2-fluorobenzyl)-2,5-dimethyl-1H-pyrrole-3-carbonitrile], under setting [2], the IC50 was under 100 nM.

`Cc1nc(CO)sc1Oc1ccc(-n2ncn(Cc3c(F)cccc3F)c2=O)cc1` [Example 157, 4-(2,6-difluorobenzyl)-2-(4-((2-(hydroxymethyl)-4-methylthiazol-5-yl)oxy)phenyl)-2,4-dihydro-3H-1,2,4-triazol-3-one]: the IC50 under setting [2] was under 100 nM.

With `Cc1nc(C(=O)N2CCOCC2)sc1Oc1ccc(-n2ncn(Cc3c(F)cccc3F)c2=O)cc1F` [Example 22, 4-(2,6-difluorobenzyl)-2-(3-fluoro-4-((4-methyl-2-(morpholin-4-carbonyl)thiazol-5-yl)oxy)phenyl)-2,4-dihydro-3H-1,2,4-triazol-3-one], the IC50 under setting [3] was under 100 nM.

As to `Cc1nc(N2CC(C)(NC(=O)OC(C)(C)C)C2)sc1C(C)(O)c1ccc(-n2ncn(Cc3c(F)cccc3F)c2=O)cc1` (centres unmarked) [Example 516, tert-butyl (1-(5-(1-(4-(4-(2,6-difluorobenzyl)-5-oxo-4,5-dihydro-1H-1,2,4-triazol-1-yl)phenyl)-1-hydroxyethyl)-4-methylthiazol-2-yl)-3-methylazetidin-3-yl)carbamate], under setting [2], the IC50 is under 100 nM.

As for `CCOC1CN(c2nccc(Oc3ccc(-n4ncn(Cc5c(F)cccc5F)c4=O)cc3Cl)c2F)C1` [Example 494, 2-(3-chloro-4-((2-(3-ethoxyazetidin-1-yl)-3-fluoropyridin-4-yl)oxy)phenyl)-4-(2,6-difluorobenzyl)-2,4-dihydro-3H-1,2,4-triazol-3-one], the IC50 under setting [2] was under 100 nM.

As to `Cc1c(CC#N)noc1Oc1ccc(-n2ncn(Cc3c(F)cccc3F)c2=O)cc1F` [Example 650, 2-(5-(4-(4-(2,6-difluorobenzyl)-5-oxo-4,5-dihydro-1H-1,2,4-triazol-1-yl)-2-fluorophenoxy)-4-methylisoxazol-3-yl)acetonitrile], the IC50 under setting [4] is under 100 nM.

Consider `CCOC1CN(c2nccc(Oc3ccc(-n4ncn(Cc5c(F)cccc5F)c4=O)cc3F)c2F)C1` [Example 363, 4-(2,6-difluorobenzyl)-2-(4-((2-(3-ethoxyazetidin-1-yl)-3-fluoropyridin-4-yl)oxy)-3-fluorophenyl)-2,4-dihydro-3H-1,2,4-triazol-3-one], for which the IC50 under setting [1] is under 100 nM.

As for `Cc1nc(Oc2cccnc2)sc1-n1ncn(Cc2c(F)cccc2F)c1=O` [Example 166, 4-(2,6-difluorobenzyl)-2-(4-methyl-2-(pyridin-3-yloxy)thiazol-5-yl)-2,4-dihydro-3H-1,2,4-triazol-3-one], under setting [2], the IC50 was in the range of 100 to 1000 nM.

Regarding `COC(=O)c1nc(C)c(Oc2ccc(-n3ncn(Cc4c(F)cccc4C#N)c3=O)cc2F)s1` [Example 106, methyl 5-(4-(4-(2-cyano-6-fluorobenzyl)-5-oxo-4,5-dihydro-1H-1,2,4-triazol-1-yl)-2-fluorophenoxy)-4-methylthiazole-2-carboxylate], the IC50 under setting [3] was under 100 nM.

As for `O=c1n(Cc2c(F)cccc2F)cnn1-c1ccc(Oc2ccnc(NC3CC(F)(F)C3)c2)cc1` [Example 328, 4-(2,6-difluorobenzyl)-2-(4-((2-((3,3-difluorocyclobutyl)amino)pyridin-4-yl)oxy)phenyl)-2,4-dihydro-3H-1,2,4-triazol-3-one], the IC50 under setting [1] lay within 100 to 1000 nM.

Take `Cc1nn(CC2COC2)c(C)c1Oc1ccc(-n2ncn(Cc3c(F)cccc3F)c2=O)cc1F` [Example 179, 4-(2,6-difluorobenzyl)-2-(4-((3,5-dimethyl-1-(oxetan-3-ylmethyl)-1H-pyrazol-4-yl)oxy)-3-fluorophenyl)-2,4-dihydro-3H-1,2,4-triazol-3-one]: the IC50 under setting [2] is under 100 nM.

Take `Cc1cn(Cc2ccc(-n3nc4n(c3=O)C(c3ccccc3)CC4)cc2F)c(C)c1C(N)=O` (centres unmarked) [Example 222, 1-(2-fluoro-4-(3-oxo-5-phenyl-6,7-dihydro-3H-pyrrolo[2,1-c][1,2,4]triazol-2(5H)-yl)benzyl)-2,4-dimethyl-1H-pyrrole-3-carboxamide]: under setting [2], the IC50 is under 100 nM.

`C[C@H]1[C@@H](N(C)C)CN1c1cc(Oc2ccc(-n3ncn(Cc4c(F)cccc4F)c3=O)cc2F)c(F)cn1` [Example 241, 4-(2,6-difluorobenzyl)-2-(4-((2-((2S,3S)-3-(dimethylamino)-2-methylazetidin-1-yl)-5-fluoropyridin-4-yl)oxy)-3-fluorophenyl)-2,4-dihydro-3H-1,2,4-triazol-3-one]: the IC50 under setting [1] was under 100 nM.

As for `Cc1nc(C=O)sc1Oc1ccc(-n2ncn(Cc3c(F)cccc3F)c2=O)cc1F` [Example 634, 5-[4-[4-[(2,6-difluorophenyl)methyl]-5-oxo-1,2,4-triazol-1-yl]-2-fluoro-phenoxy]-4-methyl-thiazole-2-carbaldehyde], under setting [4], the IC50 was under 100 nM.

For `Cc1nc(N2CC(C)(OC(F)(F)F)C2)sc1Oc1ccc(-n2ncn(Cc3c(F)cccc3F)c2=O)cc1` [Example 57, 4-(2,6-difluorobenzyl)-2-(4-((4-methyl-2-(3-methyl-3-(trifluoromethoxy)azetidin-1-yl)thiazol-5-yl)oxy)phenyl)-2,4-dihydro-3H-1,2,4-triazol-3-one], under setting [3], the IC50 was under 100 nM.

`CNC1(C)CN(c2cc(Oc3ccc(-n4ncn(Cc5c(F)cccc5F)c4=O)cc3F)c(Cl)cn2)C1` [Example 414, 2-(4-((5-chloro-2-(3-methyl-3-(methylamino)azetidin-1-yl)pyridin-4-yl)oxy)-3-fluorophenyl)-4-(2,6-difluorobenzyl)-2,4-dihydro-3H-1,2,4-triazol-3-one]: under setting [1], the IC50 was over 10000 nM.

As to `COC(=O)c1nc(C)c(Oc2ccc(-n3nc4n(c3=O)[C@@H](c3ccccc3)CC4)cc2F)s1` (single isomer, unassigned) [Example 35], the IC50 under setting [3] fell in the range of 1000 to 10000 nM.
